Laboratory results from article PMC7413254 (Nature Communications, 2020).
Like-named read-outs stand apart in the source and are kept apart here. Where no end group is shown, it is not given here.

Key:
Assay type in all cases: cell-based
PfCRT^Dd2 [1] = molecular target: T1, PfCRT^Dd2 (Plasmodium falciparum, UniProt Q9N623, A220S/I356T/K76T/M74I/N326S/N75E/Q271E/R371I); assay: [3H]CQ uptake into Xenopus oocytes, cis-inhibition by unlabelled solute; details: read-out: PfCRT-mediated [3H]CQ transport, cis-inhibition (% PfCRTDd2 control)
T1 sequence (Q9N623 whole entry A220S/I356T/K76T/M74I/N326S/N75E/Q271E/R371I): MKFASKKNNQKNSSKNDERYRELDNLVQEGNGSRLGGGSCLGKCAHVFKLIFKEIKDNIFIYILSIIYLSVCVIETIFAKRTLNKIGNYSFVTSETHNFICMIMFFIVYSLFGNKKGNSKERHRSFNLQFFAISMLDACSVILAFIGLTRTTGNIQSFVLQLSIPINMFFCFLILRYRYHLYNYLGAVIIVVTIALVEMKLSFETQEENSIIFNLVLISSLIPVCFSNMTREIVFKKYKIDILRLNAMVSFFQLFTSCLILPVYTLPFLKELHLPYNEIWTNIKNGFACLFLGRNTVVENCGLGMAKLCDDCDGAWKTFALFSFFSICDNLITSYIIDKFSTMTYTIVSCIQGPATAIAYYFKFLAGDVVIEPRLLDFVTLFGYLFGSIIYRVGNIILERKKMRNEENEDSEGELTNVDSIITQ
Procedure, shortened: (§1)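 Using pH 5.5 ND96 at 27.5 °C, uptake is followed for 1.5 h, stopped with ice-cold buffer, and quantified as accumulated radioactivity per oocyte after SDS lysis.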

PfCRT^Ecu1110 [2] = molecular target: T2, PfCRT^Ecu1110 (Plasmodium falciparum, UniProt Q9N623, A220S/I356L/K76T/N326D); assay: as above
T2 sequence (Q9N623 whole entry A220S/I356L/K76T/N326D): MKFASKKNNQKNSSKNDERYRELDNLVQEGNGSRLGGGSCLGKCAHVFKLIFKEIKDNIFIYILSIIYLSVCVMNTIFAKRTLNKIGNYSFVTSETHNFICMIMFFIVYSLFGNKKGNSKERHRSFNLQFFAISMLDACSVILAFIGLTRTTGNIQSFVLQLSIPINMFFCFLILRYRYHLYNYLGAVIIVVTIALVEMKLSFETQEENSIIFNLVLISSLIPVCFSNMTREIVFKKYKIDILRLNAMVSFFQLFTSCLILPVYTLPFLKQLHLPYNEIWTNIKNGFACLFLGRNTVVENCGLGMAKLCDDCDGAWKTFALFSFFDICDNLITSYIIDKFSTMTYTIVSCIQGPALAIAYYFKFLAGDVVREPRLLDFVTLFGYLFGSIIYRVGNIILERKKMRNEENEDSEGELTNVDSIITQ
Procedure, shortened: as §1

PfNT1 = molecular target: T3, PfNT1 (Plasmodium falciparum, UniProt Q8IDM6); assay: cell-based; details: for activity at 2000 µM: read-out: [3H]CQ transport, PfNT1, trans-stimulation, solute 2 mM
T3 construct: expressed in transfected cells; host or cells: Xenopus laevis oocytes (stage V-VI), cRNA-injected
T3 sequence (Q8IDM6 whole entry): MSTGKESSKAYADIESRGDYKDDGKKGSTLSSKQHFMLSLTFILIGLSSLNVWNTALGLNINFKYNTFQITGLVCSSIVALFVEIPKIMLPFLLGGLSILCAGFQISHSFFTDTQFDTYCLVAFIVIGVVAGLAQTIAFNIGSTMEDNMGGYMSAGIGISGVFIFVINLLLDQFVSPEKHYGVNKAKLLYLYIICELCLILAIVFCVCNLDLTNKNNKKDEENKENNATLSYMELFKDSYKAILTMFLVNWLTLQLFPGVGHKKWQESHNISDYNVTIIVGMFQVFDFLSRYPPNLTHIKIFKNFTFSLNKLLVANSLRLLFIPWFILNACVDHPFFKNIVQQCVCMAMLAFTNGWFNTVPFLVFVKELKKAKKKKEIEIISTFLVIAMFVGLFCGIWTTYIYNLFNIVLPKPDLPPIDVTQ
Procedure, shortened: (§2)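 Oocytes (ten per treatment, ≥4 independent frogs/days) were preloaded by injecting VF-6 in 25 nL ND96 at pH 5.0, 5.5, 6.0 or 7.0, or Na^+-free choline buffer, then uptake run 1.5 h, 27.5 °C, ND96 pH 5.5 by default. Internal concentrations assumed ~400 nL oocyte volume.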

PfCRT^3D7 = PfCRT^3D7 (Plasmodium falciparum, UniProt Q8IBZ9); assay: cell-based; details: for [3H]CQ transport, PfCRT3D7 (% PfCRTDd2 control): 45 mM VF-6 injected, 96 mM Na+ injection buffer; for activity at 2000 µM: read-out: [3H]CQ transport, PfCRT3D7, trans-stimulation, solute 2 mM; for [3H]CQ transport, PfCRT3D7 (% PfCRT3D7 control): solute 45 mM injected (estimated intracellular)
Sequence of PfCRT^3D7 (Q8IBZ9 59-398): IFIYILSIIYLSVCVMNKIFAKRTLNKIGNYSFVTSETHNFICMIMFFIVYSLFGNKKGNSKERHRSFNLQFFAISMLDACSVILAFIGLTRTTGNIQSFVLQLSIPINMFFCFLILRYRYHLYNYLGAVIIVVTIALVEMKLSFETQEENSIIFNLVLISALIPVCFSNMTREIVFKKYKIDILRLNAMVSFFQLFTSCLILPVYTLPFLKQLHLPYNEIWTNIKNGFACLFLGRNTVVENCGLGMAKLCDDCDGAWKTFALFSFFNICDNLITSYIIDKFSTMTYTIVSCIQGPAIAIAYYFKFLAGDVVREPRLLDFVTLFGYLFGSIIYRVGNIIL
Procedure, shortened: as §2

PfCRT^Dd2 [3] = molecular target: T1, PfCRT^Dd2; assay: cell-based; details: […]; for activity at 2000 µM: pH 5.5, read-out: [3H]CQ transport, PfCRTDd2, trans-stimulation, solute 2 mM
Procedure, shortened: as §2

PfCRT^Ecu1110 [4] = molecular target: T2, PfCRT^Ecu1110; assay: cell-based; details: […]; for activity at 45000 µM: read-out: [3H]CQ transport, PfCRTEcu1110 (% PfCRTDd2 control), 45 mM VF-6 injected, 0 mM Na+ injection buffer; for activity at 2000 µM: read-out: [3H]CQ transport, PfCRTEcu1110, trans-stimulation, solute 2 mM
Procedure, shortened: as §2

[5] = read-out: PfCRT-mediated [3H]CQ transport, cis-inhibition (% PfCRTEcu1110 control)
[6] = read-out: [3H]CQ transport (% PfCRTEcu1110 control), cis-inhibition, PfCRTEcu1110, SEM

Substance: VDPVNF [VF-6]
- inhibition at 500 µM (PfCRT^Dd2 [1]): 30 ± 1.1%
- inhibition at 1000 µM (PfCRT^Dd2 [1]): 21 ± 0.8%
- inhibition at 2000 µM (PfCRT^Dd2 [1]): 8.1 ± 0.2%
- inhibition at 500 µM (PfCRT^Ecu1110 [2]; [5]): 50 ± 2.4%
- inhibition at 1000 µM (PfCRT^Ecu1110 [2]; [5]): 39 ± 4.1%
- inhibition at 2000 µM (PfCRT^Ecu1110 [2]; [5]): 26 ± 2.1%
- inhibition at 500 µM (PfCRT^Ecu1110 [2]; [6]): 16 ± 0.3%
- inhibition at 1000 µM (PfCRT^Ecu1110 [2]; [6]): 12 ± 0.2%
- inhibition at 2000 µM (PfCRT^Ecu1110 [2]; [6]): 8 ± 0.04%
- [3H]CQ transport, PfNT1 (% PfCRTDd2 control) (PfNT1; 45 mM VF-6 injected, 0 mM Na+ injection buffer, Experiment 1): 3.36 % PfCRTDd2 control
- [3H]CQ transport, PfNT1 (% PfCRTDd2 control) (PfNT1; 45 mM VF-6 injected, 0 mM Na+ injection buffer, Experiment 2): 3.47 % PfCRTDd2 control
- [3H]CQ transport, PfNT1 (% PfCRTDd2 control) (PfNT1; 45 mM VF-6 injected, 0 mM Na+ injection buffer, Experiment 3): 3.88 % PfCRTDd2 control
- [3H]CQ transport, PfNT1 (% PfCRTDd2 control) (PfNT1; 45 mM VF-6 injected, 0 mM Na+ injection buffer, Experiment 4): 3.57 % PfCRTDd2 control
- [3H]CQ transport, PfNT1 (% PfCRTDd2 control) (PfNT1; 45 mM VF-6 injected, 0 mM Na+ injection buffer, Experiment 5): 3.69 % PfCRTDd2 control
- [3H]CQ transport, PfNT1 (% PfCRTDd2 control) (PfNT1; 45 mM VF-6 injected, 96 mM Na+ injection buffer, Experiment 1): 3.72 % PfCRTDd2 control
- [3H]CQ transport, PfNT1 (% PfCRTDd2 control) (PfNT1; 45 mM VF-6 injected, 96 mM Na+ injection buffer, Experiment 2): 3.21 % PfCRTDd2 control
- [3H]CQ transport, PfNT1 (% PfCRTDd2 control) (PfNT1; 45 mM VF-6 injected, 96 mM Na+ injection buffer, Experiment 3): 3.67 % PfCRTDd2 control
- [3H]CQ transport, PfNT1 (% PfCRTDd2 control) (PfNT1; 45 mM VF-6 injected, 96 mM Na+ injection buffer, Experiment 4): 3.45 % PfCRTDd2 control
- [3H]CQ transport, PfNT1 (% PfCRTDd2 control) (PfNT1; 45 mM VF-6 injected, 96 mM Na+ injection buffer, Experiment 5): 3.27 % PfCRTDd2 control
- activity at 2000 µM (PfNT1; Experiment 1): 2.65%
- activity at 2000 µM (PfNT1; Experiment 2): 2.51%
- activity at 2000 µM (PfNT1; Experiment 3): 2.61%
- activity at 2000 µM (PfNT1; Experiment 4): 2.73%
- [3H]CQ transport, PfNT1 (% PfCRTDd2 control) (PfNT1; trans-stimulation, solute 45 mM injected (estimated intracellular), Experiment 1): 2.65 % PfCRTDd2 control
- [3H]CQ transport, PfNT1 (% PfCRTDd2 control) (PfNT1; trans-stimulation, solute 45 mM injected (estimated intracellular), Experiment 2): 2.51 % PfCRTDd2 control
- [3H]CQ transport, PfNT1 (% PfCRTDd2 control) (PfNT1; trans-stimulation, solute 45 mM injected (estimated intracellular), Experiment 3): 2.61 % PfCRTDd2 control
- [3H]CQ transport, PfNT1 (% PfCRTDd2 control) (PfNT1; trans-stimulation, solute 45 mM injected (estimated intracellular), Experiment 4): 2.73 % PfCRTDd2 control
- [3H]CQ transport, PfCRT3D7 (% PfCRTDd2 control) (PfCRT^3D7; Experiment 1): 22.53 % PfCRTDd2 control
- [3H]CQ transport, PfCRT3D7 (% PfCRTDd2 control) (PfCRT^3D7; Experiment 2): 23.78 % PfCRTDd2 control
- [3H]CQ transport, PfCRT3D7 (% PfCRTDd2 control) (PfCRT^3D7; Experiment 3): 24.68 % PfCRTDd2 control
- [3H]CQ transport, PfCRT3D7 (% PfCRTDd2 control) (PfCRT^3D7; Experiment 4): 25.32 % PfCRTDd2 control
- [3H]CQ transport, PfCRT3D7 (% PfCRTDd2 control) (PfCRT^3D7; Experiment 5): 26.32 % PfCRTDd2 control
- activity at 5000 µM (PfCRT^3D7; […], read-out: PfCRT-mediated [3H]CQ transport, trans-stimulation (% PfCRT3D7 control), [test solute]i = 5 mM (intracellular), PfCRT3D7 oocytes, normalised to oocyte type control): 147 ± 5.2%
- activity at 45000 µM (PfCRT^3D7; […], read-out: PfCRT-mediated [3H]CQ transport, trans-stimulation (% PfCRT3D7 control), [test solute]i = 45 mM (intracellular; 30 mM for some solutes due to solubility), PfCRT3D7 oocytes, normalised to oocyte type control): 195 ± 4.6%
- activity at 45000 µM (PfCRT^3D7; […], read-out: [3H]CQ transport, PfCRT3D7 (% PfCRTDd2 control), 45 mM VF-6 injected, 0 mM Na+ injection buffer, Experiment 1): 25.3%
- activity at 45000 µM (PfCRT^3D7; […], read-out: [3H]CQ transport, PfCRT3D7 (% PfCRTDd2 control), 45 mM VF-6 injected, 0 mM Na+ injection buffer, Experiment 2): 26.4%
- activity at 45000 µM (PfCRT^3D7; […], read-out: [3H]CQ transport, PfCRT3D7 (% PfCRTDd2 control), 45 mM VF-6 injected, 0 mM Na+ injection buffer, Experiment 3): 25.3%
- activity at 45000 µM (PfCRT^3D7; […], read-out: [3H]CQ transport, PfCRT3D7 (% PfCRTDd2 control), 45 mM VF-6 injected, 0 mM Na+ injection buffer, Experiment 4): 26.8%
- activity at 45000 µM (PfCRT^3D7; […], read-out: [3H]CQ transport, PfCRT3D7 (% PfCRTDd2 control), 45 mM VF-6 injected, 0 mM Na+ injection buffer, Experiment 5): 27.3%
- activity at 2000 µM (PfCRT^3D7; […], Experiment 1): 22.9%
- activity at 2000 µM (PfCRT^3D7; […], Experiment 2): 19.1%
- activity at 2000 µM (PfCRT^3D7; […], Experiment 3): 21.1%
- activity at 2000 µM (PfCRT^3D7; […], Experiment 4): 21.8%
- [3H]CQ transport, PfCRT3D7 (% PfCRT3D7 control) (PfCRT^3D7; trans-stimulation, Experiment 1): 187.43 % PfCRT3D7 control
- [3H]CQ transport, PfCRT3D7 (% PfCRT3D7 control) (PfCRT^3D7; trans-stimulation, Experiment 2): 206.32 % PfCRT3D7 control
- [3H]CQ transport, PfCRT3D7 (% PfCRT3D7 control) (PfCRT^3D7; trans-stimulation, Experiment 3): 201.32 % PfCRT3D7 control
- [3H]CQ transport, PfCRT3D7 (% PfCRT3D7 control) (PfCRT^3D7; trans-stimulation, Experiment 4): 199.25 % PfCRT3D7 control
- [3H]CQ transport (% PfCRT3D7 control), trans-stimulation, PfCRT3D7 (PfCRT^3D7; trans-stimulation, [test solute]i = 5 mM (injected), PfCRT-mediated component (background subtracted), sheet title says normalised to PfCRTDd2 control, mean ± SEM, SEM): 1.7 ± 0.02 % PfCRT3D7 control
- activity at 5000 µM (PfCRT^Dd2 [3]; pH 5.5, read-out: PfCRT-mediated [3H]CQ transport, trans-stimulation (% PfCRTDd2 control), [test solute]i = 5 mM (intracellular), PfCRTDd2 oocytes, normalised to oocyte type control): 103 ± 3.1%
- activity at 5000 µM (PfCRT^Dd2 [3]; pH 5.5, read-out: [3H]CQ transport (% PfCRTDd2 control), trans-stimulation, PfCRTDd2, trans-stimulation, [test solute]i = 5 mM (injected), PfCRT-mediated component (background subtracted), mean ± SEM, SEM): 103 ± 3.1%
- activity at 45000 µM (PfCRT^Dd2 [3]; pH 5.5, read-out: [3H]CQ transport (% PfCRTDd2 control), trans-stimulation, PfCRTDd2, trans-stimulation, [test solute]i = 45 mM (30 mM for some solutes due to solubility), PfCRT-mediated component (background subtracted), mean ± SEM, SEM): 112 ± 2.1%
- activity at 2000 µM (PfCRT^Dd2 [3]; Experiment 1): 120%
- activity at 2000 µM (PfCRT^Dd2 [3]; Experiment 2): 119%
- activity at 2000 µM (PfCRT^Dd2 [3]; Experiment 3): 120%
- activity at 2000 µM (PfCRT^Dd2 [3]; Experiment 4): 112%
- activity at 5000 µM (PfCRT^Ecu1110 [4]; pH 5.5, read-out: PfCRT-mediated [3H]CQ transport, trans-stimulation (% PfCRTEcu1110 control), [test solute]i = 5 mM (intracellular), PfCRTEcu1110 oocytes, normalised to oocyte type control): 126 ± 2.4%
- activity at 45000 µM (PfCRT^Ecu1110 [4]; Experiment 1): 47.7%
- activity at 45000 µM (PfCRT^Ecu1110 [4]; Experiment 2): 47.6%
- activity at 45000 µM (PfCRT^Ecu1110 [4]; Experiment 3): 50.8%
- activity at 45000 µM (PfCRT^Ecu1110 [4]; Experiment 4): 49.2%
- activity at 45000 µM (PfCRT^Ecu1110 [4]; Experiment 5): 51.1%
- activity at 2000 µM (PfCRT^Ecu1110 [4]; Experiment 1): 44.2%
- activity at 2000 µM (PfCRT^Ecu1110 [4]; Experiment 2): 47.3%
- activity at 2000 µM (PfCRT^Ecu1110 [4]; Experiment 3): 38.4%
- activity at 2000 µM (PfCRT^Ecu1110 [4]; Experiment 4): 45.6%
